The source of these data is patent US20040034104A1, “2,2-Diphenylbutanamide derivatives and medicines containing the same” (priority 2000, published 2004).

What is called melting point is the temperature of the solid-liquid transition.

For series [1], the system named is opioid receptor (μ-opioid). Briefly: Opioid receptor agonist activity in guinea pig ileum longitudinal muscle specimens. Conditions: agonist activity relative to DAMGO (=1.0); ileum longitudinal muscle specimens with Auerbach's plexus; method of Oka et al. The procedure:
Hartley male guinea pigs (body weight: about 500 g) wer employed. The ileum (15-30 cm) was removed from the ileocecum of each guinea pig, to thereby prepare longitudinal muscle specimens having Auerbach's plexus. Opioid receptor activity of the test drugs was measured through a method proposed by Oka et al. (Eur. J. Pharmacol., 77; 137-141, 1982). Agonist activity is represented by the efficacy relative to the activity of DAMGO ([D-Ala^2, N-MePhe^4, Gly^5-ol]-enkephalin), which is a selective μ-opioid agonist.

SMILES strings stand for the structures.

`CN(C)C(=O)C(CCN1CCC(c2ccccc2OCC(=O)O)CC1)(c1ccccc1)c1ccccc1` displayed a melting point of 202 °C. Same read-out and setting: then `CCOC(=O)COc1ccccc1C1=CCN(CCC(C(=O)N(C)C)(c2ccccc2)c2ccccc2)CC1`, with 147 °C; and `CN(C)C(=O)C(CCN1CC=C(c2ccccc2OCC(=O)O)CC1)(c1ccccc1)c1ccccc1`, with 135 °C; and `O=C(O)COc1ccccc1C1CCN(CCC(C(=O)N2CCCC2)(c2ccccc2)c2ccccc2)CC1`, with 239 °C. On the same count and under the same terms, in the case of `CN(C)C(=O)C(CCN1CCC(c2ccccc2OC(C)(C)C(=O)O)CC1)(c1ccccc1)c1ccccc1` it was 156 to 158 °C. `CN(C)C(=O)C(CCN1CCN(c2ccccc2O)CC1)(c1ccccc1)c1ccccc1` [Compound No. 36, 4-[4-(2-Hydroxyphenyl)piperazin-1-yl]-N,N-dimethyl-2,2-diphenylbutanamide] registered a Relative potency in series [1] of 10. Same read-out and setting: then `CN(C)C(=O)C(CCN1CCN(c2ccccc2OCCO)CC1)(c1ccccc1)c1ccccc1` [Compound No. 43, 4-[4-[2-(2-hydroxyethoxy)phenyl]piperazin-1-yl]-N,N-dimethyl-2,2-diphenylbutanamide], with 20. The same measure, in the same setting: then `CN(C)C(=O)C(CCN1CCC(c2ccccc2OCCO)CC1)(c1ccccc1)c1ccccc1` [Compound No. 69, 4-[4-[2-(2-hydroxyethoxy)phenyl]piperidin-1-yl]-N,N-dimethyl-2,2-diphenylbutanamide], with 10; and `C[C@@H](NC(=O)[C@@H](N)Cc1ccc(O)cc1)C(=O)NCC(=O)N(C)[C@@H](Cc1ccccc1)C(=O)NCCO` [DAMGO, [D-Ala^2, N-MePhe^4, Gly^5-ol]-enkephalin, reference compound], with 1.0; and `CN(C)C(=O)C(CCN1CCN(c2ccccc2OCC(=O)O)CC1)(c1ccccc1)c1ccccc1` [compound 45], with 20.
